Data on 3 compounds can be found in patent US20170127673A1, “COMPOSITIONS AND METHODS OF USE OF BETA-HYDROXY-BETA-METHYLBUTYRATE (HMB) AS AN ANIMAL FEED ADDITIVE” (Metabolic Technologies, Inc., priority 2015, published 2017).

Marks after values point to notes of the source that are not given here.

Series [1] has as its system Salmonella enterica subsp. enterica Serovar Enteritidis (ATCC 13076). As to the kind of experiment: Salmonella enumeration on HMB-coated, inoculated pet food kibbles (Studies 1-3). The class given is cell-based.
For series [2] the test system is unchanged. As to the kind of experiment: Overnight enrichment of subsamples to recover damaged Salmonella (presence/absence). The conditions noted are these: for Salmonella growth in enriched samples: Study 1, 0.9 and 1.5%. The class given is cell-based. Here is the method: Enriched samples were then spread plated to XLD, incubated at 37° C. for 24 h, and growth of black colonies typical for Salmonella were noted (presence/absence result, not quantitative).
From the coated and inoculated samples, 25 g subsamples were collected after the designated number of storage days. The 25 g subsample was mixed with 225 ml of buffered peptone water (BPW; Becton, Dickinson and Company, Franklin Lakes, N.J.) and stomached for 15 seconds to homogenize. The homogenate was serially diluted using BPW and spread plated onto Xylose Lysine Desoxycholate agar (XLD; Becton, Dickinson and Company, Franklin Lakes, N.J.) in duplicate. All inoculated XLD plates were incubated at 37° C. for 24 hours. After incubation, plates were enumerated by counting black colonies, typical for Salmonella. The number of observed colonies was multiplied by the dilution factor to determine the total count in cfu/g. Representative isolates from day 0 were confirmed as Salmonella through serotyping to ensure the recovered counts represent the inoculated culture. Counts for the positive and negative controls were also recorded. In addition, on the first sample date that counts of zero were recovered, the subsample was enriched overnight to allow damaged Salmonella cells to be recovered. Enriched samples were spread plated to XLD, incubated at 37° C. for 24 hours, and growth of black colonies typical for Salmonella were noted (presence/absence result, not quantitative).
Based on the results from enumeration on day 1, 2, 7 and 14, the subsample was retained and enriched to allow damaged cells to be recovered. Enriched samples were spread plated to XLD.

For series [3] the following is noted: after HMB is fed; cited from earlier work.
The conditions of series [4]: healthy young or old adults; cited from earlier work.

Consider `CC(C)(O)CC(=O)O` [HMB, β-hydroxy-β-methylbutyrate], for which the “Salmonella enumeration (limit of detection)” value in series [1] (Study 1, both treatments (0.9 and 1.5%), day 1) was < 100 cfu/g; in series [1] (Study 1, both treatments (0.9 and 1.5%), day 2, 7 and 14) it was < 10 cfu/g. In addition, the “Reduction of Salmonella artificially inoculated to the kibble” value in series [1] (Study 1, coating at 0.9 and 1.5%, 14-day test period) is recorded as “effective”. Also, the “Salmonella growth in enriched samples” value is reported as “positive” in series [2] (day 1 and 2); “negative” in series [2] (day 7 and 14). Also, the “Loss of HMB to urine” value in series [3] is on record as 20-50%. In series [4], the Side effects result is listed as “no side effects”.

As to “calcium β-hydroxy-β-methylbutyrate [CaHMB]”, the “Salmonella levels in coated kibbles” value in series [1] (Study 3, 0.1% (w:w) powder coating, Day 0) is 7.19±0.04 log10 CFU/g; in series [1] (Study 3, 0.1% (w:w) powder coating, Day 1) it was 7.11 ± 0.08 log10 CFU/g; in series [1] (Study 3, 0.1% (w:w) powder coating, Day 2), 6.84 ± 0.17 log10 CFU/g; in series [1] (Study 3, 0.1% (w:w) powder coating, Day 7), 3.18 ± 0.03^ log10 CFU/g; in series [1] (Study 3, 0.1% (w:w) powder coating, Day 14, below limit of detection of 10 CFU/g), 0 ± 0^b log10 CFU/g; in series [1] (Study 3, 0.3% (w:w) powder coating, Day 0) it was 7.17±0.07 log10 CFU/g. Further, the “Salmonella levels in coated kibbles” value is recorded as 7.01 ± 0.07 log10 CFU/g in series [1] (Study 3, 0.3% (w:w) powder coating, Day 1); 6.26 ± 0.03 log10 CFU/g in series [1] (Study 3, 0.3% (w:w) powder coating, Day 2); 3.17 ± 0.04^ log10 CFU/g in series [1] (Study 3, 0.3% (w:w) powder coating, Day 7); 0 ± 0^b log10 CFU/g in series [1] (Study 3, 0.3% (w:w) powder coating, Day 14, below limit of detection of 10 CFU/g); 7.09±0.04 log10 CFU/g in series [1] (Study 3, 0.5% (w:w) powder coating, Day 0); 6.15 ± 0.11 log10 CFU/g in series [1] (Study 3, 0.5% (w:w) powder coating, Day 1). For the same compound, the “Salmonella levels in coated kibbles” value in series [1] (Study 3, 0.5% (w:w) powder coating, Day 2) is 5.87 ± 0.20 log10 CFU/g; in series [1] (Study 3, 0.5% (w:w) powder coating, Day 7, below limit of detection of 10 CFU/g), 0 ± 0^b log10 CFU/g; in series [1] (Study 3, 0.5% (w:w) powder coating, Day 14, below limit of detection of 10 CFU/g), 0 ± 0^b log10 CFU/g; in series [1] (Study 3, 0.9% (w:w) powder coating, Day 0) it was 7.08±0.12 log10 CFU/g; in series [1] (Study 3, 0.9% (w:w) powder coating, Day 1) it was 6.27 ± 0.06 log10 CFU/g; in series [1] (Study 3, 0.9% (w:w) powder coating, Day 2), 6.03 ± 0.05 log10 CFU/g. Moreover, the “Salmonella levels in coated kibbles” value in series [1] (Study 3, 0.9% (w:w) powder coating, Day 7, below limit of detection of 10 CFU/g) is 0 ± 0^b log10 CFU/g; in series [1] (Study 3, 0.9% (w:w) powder coating, Day 14, below limit of detection of 10 CFU/g) it was 0 ± 0^b log10 CFU/g; in series [1] (Study 3, 1.5% (w:w) powder coating, Day 0) it was 7.04±0.13 log10 CFU/g; in series [1] (Study 3, 1.5% (w:w) powder coating, Day 1), 6.24 ± 0.07 log10 CFU/g; in series [1] (Study 3, 1.5% (w:w) powder coating, Day 2), 5.87 ± 0.09 log10 CFU/g; in series [1] (Study 3, 1.5% (w:w) powder coating, Day 7, below limit of detection of 10 CFU/g), 0 ± 0^b log10 CFU/g. The “Salmonella levels in coated kibbles” value in series [1] (Study 3, 1.5% (w:w) powder coating, Day 14, below limit of detection of 10 CFU/g) was 0 ± 0^b log10 CFU/g. The Salmonella enumeration counts result in series [1] (Study 3, 0.5, 0.9 and 1.5% coated kibbles, day 7) is “below the limit of detection”. For the same compound, in series [1] (Study 3, all treated kibbles, day 14), the “Salmonella enumeration counts (limit of detection)” value is given as < 10 CFU/g. Besides, the “Attenuation of Salmonella on kibbles” value in series [1] (Study 3, powdered form, lower levels eliminating after 14 days, higher levels during first week) is listed as “very effective”. In addition, the “Salmonella growth in enriched subsamples” value in series [2] (Study 3, days 7 and 14 for 0.5, 0.9, 1.5%, day 14 for 0.1 and 0.3%) is “no Salmonella growth”.

In the case of `CC(C)(O)CC(=O)O` [HMBFA, β-hydroxy-β-methylbutyric acid], the “Salmonella levels in coated kibbles” value in series [1] (Study 1, 0.9% (w:w) coating, Day 0) was 5.59 ± 0.22 log10 CFU/g; in series [1] (Study 1, 0.9% (w:w) coating, Day 1, below limit of detection of 100 CFU/g), 0.00 ± 0^b log10 CFU/g; in series [1] (Study 1, 0.9% (w:w) coating, Day 2, below limit of detection of 10 CFU/g), 0.00 ± 0^c log10 CFU/g; in series [1] (Study 1, 0.9% (w:w) coating, Day 7, below limit of detection of 10 CFU/g) it was 0.00 ± 0^c log10 CFU/g; in series [1] (Study 1, 0.9% (w:w) coating, Day 14, below limit of detection of 10 CFU/g) it was 0.00 ± 0^c log10 CFU/g; in series [1] (Study 1, 1.5% (w:w) coating, Day 0), 4.88 ± 0.19 log10 CFU/g. For the same compound, the “Salmonella levels in coated kibbles” value is 0.00 ± 0^b log10 CFU/g in series [1] (Study 1, 1.5% (w:w) coating, Day 1, below limit of detection of 100 CFU/g); 0.00 ± 0^c log10 CFU/g in series [1] (Study 1, 1.5% (w:w) coating, Day 2, below limit of detection of 10 CFU/g); 0.00 ± 0^c log10 CFU/g in series [1] (Study 1, 1.5% (w:w) coating, Day 7, below limit of detection of 10 CFU/g); 0.00 ± 0^c log10 CFU/g in series [1] (Study 1, 1.5% (w:w) coating, Day 14, below limit of detection of 10 CFU/g); 5.61±0.19 log10 CFU/g in series [1] (Study 2, 0.1% (w:w) coating, Day 0); 3.50 ± 0.12 log10 CFU/g in series [1] (Study 2, 0.1% (w:w) coating, Day 1). Moreover, the “Salmonella levels in coated kibbles” value in series [1] (Study 2, 0.1% (w:w) coating, Day 2) was 2.62 ± 0.26 log10 CFU/g; in series [1] (Study 2, 0.1% (w:w) coating, Day 7), 0.87 ± 0.47 log10 CFU/g; in series [1] (Study 2, 0.1% (w:w) coating, Day 14, below limit of detection of 10 CFU/g), 0.00 ± 0^b log10 CFU/g; in series [1] (Study 2, 0.3% (w:w) coating, Day 0), 5.62±0.06 log10 CFU/g; in series [1] (Study 2, 0.3% (w:w) coating, Day 1) it was 2.85 ± 0.16 log10 CFU/g; in series [1] (Study 2, 0.3% (w:w) coating, Day 2), 1.63 ± 0.32 log10 CFU/g. The “Salmonella levels in coated kibbles” value in series [1] (Study 2, 0.3% (w:w) coating, Day 7) is recorded as 0.67 ± 0.33 log10 CFU/g; in series [1] (Study 2, 0.3% (w:w) coating, Day 14, below limit of detection of 10 CFU/g), 0.00 ± 0^b log10 CFU/g; in series [1] (Study 2, 0.5% (w:w) coating, Day 0), 5.60±0.26 log10 CFU/g; in series [1] (Study 2, 0.5% (w:w) coating, Day 1), 2.09 ± 0.28 log10 CFU/g; in series [1] (Study 2, 0.5% (w:w) coating, Day 2) it was 0.93 ± 0.52 log10 CFU/g; in series [1] (Study 2, 0.5% (w:w) coating, Day 7, below limit of detection of 10 CFU/g) it was 0.00 ± 0^b log10 CFU/g. The “Salmonella levels in coated kibbles” value in series [1] (Study 2, 0.5% (w:w) coating, Day 14, below limit of detection of 10 CFU/g) is recorded as 0.00 ± 0^b log10 CFU/g. Moreover, in series [1] (Study 1, 0.9 and 1.5% (w:w)), the “Time to elimination of Salmonella inoculated onto the kibbles” value is reported as ≤ 24 h. Further, the “Salmonella enumeration (limit of detection)” value in series [1] (Study 2, 0.5% treatment, days 2, 7 and 14) is listed as < 10 CFU/g; in series [1] (Study 2, day 14 across all treatments) it was < 10 CFU/g. The “Lowest coating level effective in eliminating the Salmonella inoculum” value in series [1] (Study 2, by day 14) is given as “around 0.1 % (w:w)”. Moreover, the “Salmonella growth in enriched subsamples” value in series [2] (Study 2, treatment levels below limit of detection on enumeration days 2, 7 and 14) is recorded as “positive”.
